# From patent publication US12667549B2 (DOMPÉ FARMACEUTICI S.P.A., priority 2020, dated 2026)
# Entries after “also recorded” stand apart in the source; their conditions may differ.
# How the values were obtained:
# [1] = test system: carrageenan-induced rat paw edema; assay: Inflammatory pain in rats induced by carrageenan intraplantar injection (paw edema); assay type: in vivo, Male Wistar rats; settings: oral capsules 1 h before 1% carrageenan; KL Co-xx 47.1 mg/kg, Gabapentin 20.4 mg/kg, admixture 47.1+20.4 mg/kg; FIGS. 4 and 5
# Source text: Rat chow and tap water were available ad libitum. […] Animal care was in compliance with Italian Legislative Decree (D.L. 116/92) and European Commission Directive (O.J. of E.C. L358/1, 18/12/86) regulations on the protection of laboratory animals. All efforts were made to minimize animal suffering and the number of animals used.
# Edema was expressed as the mean increase in paw volume (ml) relative to control animals.
# osteoarthritis = settings: prolonged administration; cited from earlier work
# [2] = cited from earlier work
# [3] = in vivo; cited from earlier work
# [4] = Plasma and brain levels of Gabapentin after oral administration as capsules; settings: male, Sprague-Dawley, rat, in vivo, 2 capsules
compound,measurement,setting,value
NCC1(CC(=O)O)CCCCC1 [Gabapentin],"anti-inflammatory effect on carrageenan-evoked edema (paw volume, % inhibition)",[1],less effective; also recorded: little active on inflammatory pain
same,start of therapeutic effect in osteoarthritis (duration of administration),osteoarthritis,3 months
same,time of utmost level in plasma,[2]; after oral administration,3 to 4 h
same,binding to plasma proteins,[2]; in vivo,does not attach to plasma proteins
same,hepatic metabolism,[2]; in vivo,neither inhibited nor metabolized by hepatic enzymes
same,excretion half-life,[2]; renal excretion,roughly 6 hours
same,side effect: ataxia,[3],13%
same,side effect: dizziness,[3],18%
same,side effect: fatigue,[3],11%
same,side effect: somnolence,[3],20%
same,Kp at 2 h,[4],0.378
